One experiment addresses T1, TrkA (Homo sapiens, UniProt P04629).
T1 construct: The kinase domain of the human TrkA receptor is expressed in Sf9 insect cells as a histidine (His)-fusion protein; His; made in house; host or cells: Sf9 insect cells (baculovirus)
Briefly: TrkA tyrosine kinase inhibition assay (recombinant enzyme, polyGluTyr phosphorylation, 33P). The class given is biochemical. Conditions: kinase domain of human TrkA, substrate PGT 0.1 mg/ml, 30 uM ATP, 1 hour at 30° C. The text has this: The ability of compounds of the invention to inhibit tyrosine kinase activity of TrkA may be measured using a recombinant enzyme in an assay that measures the ability of compounds to inhibit the phosphorylation of the exogenous substrate, polyGluTyr (PGT, 4:1). The kinase domain of the human TrkA receptor is expressed in Sf9 insect cells as a histidine (His)-fusion protein using a baculovirus expression system. The protein is purified from the lysates of these cells using an Ni-NTA affinity column. After the recombinant enzyme is purified, it is activated by incubation with cold ATP. The enzyme assay is performed in a 96-well plate. Test compounds are first dissolved in dimethylsulfoxide (DMSO) and then serially-diluted in a 96-well plate. The serially-diluted compounds are transferred to the 96-well assay plate so that the final concentration of DMSO in the enzyme assay is 1.64%. All assay components are diluted in phosphorylation buffer (20 mm MOPS, 10 mM MgCl2, 1 mM EDTA, 0.015% Brij-35, 0.1 mg/ml BSA, 0.0025% Beta-Mercaptoethanol). The recombinant enzyme is added to the assay plate containing test compound and the reaction is initiated with a substrate solution containing a final concentration of 0.1 mg/ml PGT, 30 uM ATP, and 0.008mCi/ml ^33P-gammaATP (3000Ci/mmol). After a 1 hour incubation at 30° C., the reaction is terminated with 10% TCA and incubated at 4° C. for 1 hour. The reaction is filtered onto a Unifilter® GF/C™ filter plate that has been presoaked with 0.1M NaPyrophosphate. Microscint-20 is then added to the dried filter plate and the captured ^33P-phosphorylated PGT is quantitated on a microscintillation plate counter (TopCount•NXT™). Inhibition of the kinase enzymatic activity by the test compound is detected by a reduction in scintillation, and the concentration of compound that is required to inhibit the signal by 50% is reported as the IC50 value for the test compound.

In a further experiment the target is T2, TrkB (Homo sapiens, UniProt Q16620).
T2 construct: The kinase domain of the human TrkB receptor (amino acids 526-838); His; purchased Invitrogen; host or cells: insect cells
Briefly: TrkB tyrosine kinase inhibition assay (recombinant enzyme, polyGluTyr phosphorylation, 33P). The class given is biochemical. Conditions: kinase domain of human TrkB (amino acids 526-838), substrate PGT 0.1 mg/ml, 30 uM ATP, 1 hour at 30° C. As for the experimental part:
The ability of compounds of the invention to inhibit tyrosine kinase activity of TrkB may be measured using a recombinant enzyme in an assay that measures the ability of compounds to inhibit the phosphorylation of the exogenous substrate, polyGluTyr (PGT, 4:1). The kinase domain of the human TrkB receptor (amino acids 526-838) is expressed in insect cells as a histidine (His)-fusion protein and is commercially available from Invitrogen™. The enzyme assay is performed in a 96-well plate. Test compounds are first dissolved in dimethylsulfoxide (DMSO) and then serially-diluted in a 96-well plate. The serially-diluted compounds are transferred to the 96-well assay plate so that the final concentration of DMSO in the enzyme assay is 1.64%. All assay components are diluted in phosphorylation buffer (20 mm MOPS, 10 mM MgCl2, 1 mM EDTA, 0.015% Brij-35, 0.1 mg/ml BSA, 0.0025% Beta-Mercaptoethanol). The recombinant enzyme is added to the assay plate containing test compound and the reaction is initiated with a substrate solution containing a final concentration of 0.1 mg/ml PGT, 30 uM ATP, and 0.008mCi/ml ^33P-gammaATP (3000 Ci/mmol). After a 1 hour incubation at 30° C., the reaction is terminated with 10% TCA and incubated at 4° C. for 1 hour. The reaction is filtered onto a Unifilter® GF/C™ filter plate that has been pre-soaked with 0.1M NaPyrophosphate. Microscint-20 is then added to the dried filter plate and the captured ^33P-phosphorylated PGT is quantitated on a microscintillation plate counter (TopCount•NXT™). Inhibition of the kinase enzymatic activity by the test compound is detected by a reduction in scintillation, and the concentration of compound that is required to inhibit the signal by 50% is reported as the IC50 value for the test compound.

T2 sequence (Q16620 510-822): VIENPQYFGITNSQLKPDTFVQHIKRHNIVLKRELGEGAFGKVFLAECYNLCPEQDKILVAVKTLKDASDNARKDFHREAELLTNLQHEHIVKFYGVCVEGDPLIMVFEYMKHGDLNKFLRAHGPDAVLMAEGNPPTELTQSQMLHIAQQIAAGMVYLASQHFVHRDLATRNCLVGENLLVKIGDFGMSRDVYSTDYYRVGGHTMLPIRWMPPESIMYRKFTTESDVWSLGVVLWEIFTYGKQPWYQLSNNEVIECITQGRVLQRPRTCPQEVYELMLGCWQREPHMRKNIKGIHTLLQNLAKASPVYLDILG
T1 sequence (P04629 510-781 limits assumed): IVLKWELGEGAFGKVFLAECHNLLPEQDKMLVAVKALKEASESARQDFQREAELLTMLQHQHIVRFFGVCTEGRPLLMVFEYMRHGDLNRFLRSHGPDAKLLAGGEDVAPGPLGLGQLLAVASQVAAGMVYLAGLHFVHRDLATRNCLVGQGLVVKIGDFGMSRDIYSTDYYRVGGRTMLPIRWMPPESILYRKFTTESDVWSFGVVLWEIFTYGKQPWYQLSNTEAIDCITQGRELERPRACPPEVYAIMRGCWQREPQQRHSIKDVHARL

Turning to `C[C@H](Nc1nc(Nc2cc(C3CC3)[nH]n2)nn2cccc12)c1ccc(F)cc1` [Example 1, N^2-(5-cyclopropyl-1H-pyrazol-3-yl)-N^4-((1S)-1-(4-fluorophenyl)ethyl)pyrrolo[2,1-f][1,2,4]triazine-2,4-diamine], the IC50 was determined as 0.3 nM at TrkA and 0.8 nM at TrkB.
For `CCCC[C@H](C)Nc1nc(Nc2cc(C3CC3)[nH]n2)nn2cccc12` [Example 21, N^2-(5-cyclopropyl-1H-pyrazol-3-yl)-N^4-((1S)-1-methylpentyl)pyrrolo[2,1-ƒ][1,2,4]triazine-2,4-diamine] the same measures were 0.5 nM and 2 nM.
With `CC(C)[C@@H](CO)Nc1nc(Nc2cc(C3CC3)[nH]n2)nn2cccc12` [Example 24, (2S)-2-((2-((5-cyclopropyl-1H-pyrazol-3-yl)amino)pyrrolo[2,1-ƒ][1,2,4]triazin-4-yl)amino)-3-methyl-1-butanol], the half-maximal inhibitory concentration (IC50) came to 36 nM at TrkA and 64 nM at TrkB.
For `C[C@H](Nc1nc(Nc2cc(C3CC3)[nH]n2)nn2cccc12)C1CCCCC1` [Example 32, N^4-((1S)-1-cyclohexylethyl)-N^2-(5-cyclopropyl-1H-pyrazol-3-yl)pyrrolo[2,1-ƒ][1,2,4]triazine-2,4-diamine] the same measures were 2 nM and 3 nM.

For the origin of these results see patent US8268998B2, “Pyrrolotriazine kinase inhibitors” (Bristol-Myers Squibb Company, priority 2006, dated 2012).
